Here are results for 3 molecules from US7304166B2, “Benzenesulfonate salt of 4-fluoro-2-cyanopyrrolidine derivatives” (Taisho Pharmaceutical Co., Ltd., priority 2002, dated 2007).

Type in all cases: physicochemical
Data set [1] can be described thus: Testing for weight change under humidified conditions. As to conditions: room temperature; for Change in weight / State: desiccator containing water. As for the experimental part:
Each analyte (10.0 mg) was metered into a microtube (diameter: 8 mm, length: 50 mm) and allowed to stand in a desiccator containing water in such a manner as to keep the tube from coming into contact with water. The desiccator was allowed to stand at room temperature. The analytes were monitored for their state and measured for their weight with time. Changes in weight were expressed as percentages (%).

Data set [2] in a line: Solid-state stability testing (remaining percentage by HPLC). As for the experimental part:
Each analyte (about 1 mg) was precisely metered and stored in a screw-capped test tube covered with aluminum foil for light shielding, which was sealed under heated conditions (70° C.) or opened under heated and humidified conditions (40° C., 75% RH). The remaining percentage of each drug was measured in the following manner. After completion of a given period of storage, the test tubes were supplemented with 10 ml HPLC mobile phase to dissolve the analytes and then provided for quantification by HPLC. The results were compared in area with the initial values obtained before heating or before heating and humidification to calculate the remaining percentage of drugs.
Column temperature: 40° C.
Detection: UV absorptiometer (Detection wavelength: 210 nm)
Mobile phase: water/acetonitrile/phosphoric acid/SDS (700:300:1:2)

Data set [3] can be described thus: Compatibility testing with additives (remaining percentage by HPLC). The conditions noted are these: 65° C. for 1 week, sealed, methanesulfonate salt. As for the experimental part:
This testing was performed according to the report of Serajuddin A. T. M. et al. (J. Pharm. Sci., 88, 696-704, 1999). A drug substance and additives were metered into a screw-capped test tube according to Recipe A (10 mg drug substance, 68 mg crystalline cellulose, 2 mg magnesium stearate) or Recipe B (10 mg drug substance, 68 mg lactose, 2 mg hydrogenated oil) and mixed in a rotary mixer (MIX-ROTAR VMR-5, Iuchi Seieido Co., Ltd., Japan) for 1 hour. The mixture according to Recipe A or B was further stirred using a vortex mixer (TOUCH MIXER MT-31, Yamato Scientific Co., Ltd., Japan), provided that Recipe A was supplemented with no additional ingredient, while Recipe B was supplemented with 16 μl purified water. The mixtures were stored at 65° C. for 1 week under sealed and completely light-shielded conditions and then measured for drug content after storage to calculate the remaining percentage of each drug in each recipe.
The drug content was determined in the following manner. […] The resulting solutions were each filtered through a 0.45 μm membrane filter, 5 ml of which was sampled and filled up with 50% methanol in a 10 ml measuring flask for use as a sample solution and then quantified by HPLC. […]

Setting [4] is: humidified conditions, over the test period.
Setting [5] is: 40° C., 75% RH for 1 month, opened, light-shielded.
The mark [6] stands for this setting: 70° C. for 3 days, sealed, light-shielded.

A value given as a limit tells only on which side of the number the result lay.

As for `CC(C)(CO)NCC(=O)N1C[C@@H](F)C[C@H]1C#N.Cl` [Reference Example 1, (2S,4S)-2-cyano-4-fluoro-1-[(2-hydroxy-1,1-dimethyl)ethylamino]acetylpyrrolidine hydrochloride salt], in data set [1] (Day 1), the Change in weight result is “+44%” and the State entry is “Deliquescence”. In addition, in data set [1] (setting [4]), the “State under humidified conditions” value is listed as “deliquesced”. Also, in data set [2] (setting [5]), the “Remaining percentage of drug” value is on record as 92.6%. In addition, in data set [2] (setting [6]), the “Remaining percentage of drug” value was found to be 97.0%.

Take `CC(C)(CO)NCC(=O)N1C[C@@H](F)C[C@H]1C#N.CS(=O)(=O)O` [Reference Example 2, (2S,4S)-2-cyano-4-fluoro-1-[(2-hydroxy-1,1-dimethyl)ethylamino]acetylpyrrolidine methanesulfonate salt]: the results for the Change in weight entry in data set [1] (Day 1) and in data set [1] (Day 2) were “+28%” and “+71%”, respectively. In data set [1] (Day 2), the State result is “Deliquescence”. Further, the “State under humidified conditions” value in data set [1] (setting [4]) is recorded as “deliquesced”. Besides, the “Remaining percentage of drug” value came to 95.9% in data set [2] (setting [5]); 95.5% in data set [2] (setting [6]); 91.6% in data set [3] (Recipe A (crystalline cellulose, magnesium stearate)); 74.5% in data set [3] (Recipe B (lactose, hydrogenated oil, purified water)).

For `CC(C)(CO)NCC(=O)N1C[C@@H](F)C[C@H]1C#N.O=S(=O)(O)c1ccccc1` [Example 1, (2S,4S)-2-cyano-4-fluoro-1-[(2-hydroxy-1,1-dimethyl)ethylamino]acetylpyrrolidine benzenesulfonate salt], the State entry in data set [1] (Day 3) is reported as “No change”. Moreover, in data set [1] (setting [4]), the “Change in weight under humidified conditions” value was “no change in weight”. The “State under humidified conditions” value in data set [1] (setting [4]) was “no deliquescence”. The “Remaining percentage of drug” value is listed as 99.6% in data set [2] (setting [5]); 99.3% in data set [2] (setting [6]); not below 99% in data set [2] (under either condition (70° C. 3 days; 40° C., 75% RH 1 month)).
